Experimental data taken from patent US9951056B2, “Substituted nicotinamide inhibitors of BTK and their preparation and use in the treatment of cancer, inflammation and autoimmune disease” (BEIJING INNOCARE PHARMA TECH CO., LTD., priority 2013, dated 2018).
pIC50: −log10 of the molar value.

These compounds were tested against BTK (Homo sapiens (Human), UniProt Q06187) (assay: ADP-Glo kinase biochemical assay, IC50 determination of BTK inhibitors). Conditions: ADP-Glo, ATP 50 uM; values given as bins.
Method: Biological Properties: IC50 Determination of BTK Inhibitors in ADP-Glo Kinase Biochemical Assay
Those skilled in the art will appreciate that a variety of assay formats may be used to determine the activity of the compounds described herein.
ADP-Glo™ Kinase Assay (Cat. V9102, 10000 Tests), Components: • 1×50 ml ADP-Glo™ Reagent, • 1×100 ml Kinase Detection Buffer, • 1× Kinase Detection Substrate (Lyophilized), • 1×5 ml Ultra Pure ATP, 10 mM • 1×5 ml ADP, 10 mM
• Enzyme concentration: 8 ng/5 ul. • ATP concentration: 50 uM • Substrate (peptide) concentration: 0.2 mg/ml. • Reaction buffer composition: 40 mM Tris-HCl pH7.5, 10 mM MgCl2, 2 mM MnCl2, 0.1 mg/mL BSA, 0.05 mM DTT. • Test compound concentration: DMSO≤0.5%. Methods: Compound Dosage Gradient Solution Preparation: […]
1× and 2× assay buffer were made at first. BTK kinase was diluted with 1× assay buffer but substrate was diluted with 2× assay buffer. 1 ul of diluted compound was transferred into 384-well assay plate, and then 2.0 ul of enzyme solution was added, and spun at 2000 rpm for 1 min. This mixture was incubated at 24° C. for 30 mins. 2 ul of peptide substrate/ATP mixture was added into the assay plate to start the reaction. The mixture was mixed thoroughly and then the 384-well plate was spun and incubated at 24° C. for 60 mins. 5.0 ul of ADP-Glo Reagent was added to stop the kinase activity and deplete the ATP unconsumed, and the plate was mixed thoroughly and incubated at 24° C. for 40 min. Then, 10.0 ul of Kinase Detection reagent was added, and the plate was centrifuged and then kept at 24° C. for 30 min. The luminescence signal was read on Envision.
IC50 values of compounds were calculated from a 4-parameter fit using Equation (2): Y=Bottom+(TOP-Bottom)/(1+((C/X)^hillslope)) Equation (2)
In Equation 2, Y represents % inhibition, X is the log value of the test compound concentration. IC50 was the concentration of compound where half of maximal inhibition was achieved.
All data was analyzed with IDBS XLfit5 software (ID Business Solutions Ltd., UK).

Sequence of BTK (Q06187 whole entry): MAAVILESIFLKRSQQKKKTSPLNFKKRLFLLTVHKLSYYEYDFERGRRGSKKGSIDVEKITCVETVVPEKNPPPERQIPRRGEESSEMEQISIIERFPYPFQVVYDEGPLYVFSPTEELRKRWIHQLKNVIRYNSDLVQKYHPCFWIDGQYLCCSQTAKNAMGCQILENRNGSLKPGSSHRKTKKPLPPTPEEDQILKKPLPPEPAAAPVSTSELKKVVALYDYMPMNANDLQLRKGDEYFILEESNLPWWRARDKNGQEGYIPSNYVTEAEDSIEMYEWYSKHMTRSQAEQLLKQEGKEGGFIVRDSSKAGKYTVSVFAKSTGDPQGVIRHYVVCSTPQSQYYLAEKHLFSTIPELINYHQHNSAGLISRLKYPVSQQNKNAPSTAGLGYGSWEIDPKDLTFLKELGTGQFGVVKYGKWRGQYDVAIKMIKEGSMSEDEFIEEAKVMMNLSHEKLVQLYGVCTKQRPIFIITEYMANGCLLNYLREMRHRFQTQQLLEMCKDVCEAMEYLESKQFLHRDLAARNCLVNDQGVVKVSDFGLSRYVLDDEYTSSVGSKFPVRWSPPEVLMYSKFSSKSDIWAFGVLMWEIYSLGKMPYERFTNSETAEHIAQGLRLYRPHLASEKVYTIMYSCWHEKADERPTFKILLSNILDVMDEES

Structure (SMILES) | pIC50
C=CC(=O)N1CC[C@@H](n2cc(C(N)=O)c(-c3ccc(Oc4ccccc4)cc3)n2)C1 [Example 20, (R)-1-(1-acryloylpyrrolidin-3-yl)-3-(4-phenoxyphenyl)-1H-pyrazole-4-carboxamide] | > 6.30
C=CC(=O)NC1CCN(c2ccc(C(N)=O)c(-c3ccc(Oc4ccccc4)cc3)n2)C1 (stereo not shown) [Example 10, 6-(3-acrylamidopyrrolidin-1-yl)-2-(4-phenoxyphenyl)nicotinamide] | > 6.30
C=CC(=O)N1CCC(c2ccc(C(N)=O)c(-c3ccc(C(=O)Nc4ccccc4)cc3)n2)CC1 [Example 61, 6-(1-acryloylpiperidin-4-yl)-2-(4-(phenylcarbamoyl)phenyl)nicotinamide] | > 6.30
C=CC(=O)Nc1cccc(-c2ccc(C(N)=O)c(-c3ccc(Oc4ccccc4)cc3)n2)c1 [Example 1, 6-(3-acrylamidophenyl)-2-(4-phenoxyphenyl)nicotinamide] | > 6.30
C=CC(=O)N1CCC(c2nc(C(N)=O)c(-c3ccc(Oc4ccccc4)cc3)s2)C1 (stereo not shown) [Example 44, 2-(1-acryloylpyrrolidin-3-yl)-5-(4-phenoxyphenyl)thiazole-4-carboxamide] | > 6.30
NC(=O)c1cn(-c2cccc(N)c2)nc1-c1ccc(Oc2ccccc2)cc1 [Example 17, 1-(3-aminophenyl)-3-(4-phenoxyphenyl)-1H-pyrazole-4-carboxamide] | > 6.30
C=CC(=O)N1CCC(c2nc(-c3ccc(Oc4ccccc4)cc3)c(C(N)=O)s2)C1 (stereo not shown) [Example 41, 2-(1-acryloylpyrrolidin-3-yl)-4-(4-phenoxyphenyl)thiazole-5-carboxamide] | > 6.30
C=CC(=O)N1CCC(c2nc(C(N)=O)c(-c3ccc(Oc4ccccc4)cc3)o2)C1 (stereo not shown) [Example 48, 2-(1-acryloylpyrrolidin-3-yl)-5-(4-phenoxyphenyl)oxazole-4-carboxamide] | > 6.30
C=CC(=O)N1CCN(c2ccc(C(=O)O)c(-c3ccc(Oc4ccccc4)cc3)n2)CC1 [Example 26, 6-(4-acryloylpiperazin-1-yl)-2-(4-phenoxyphenyl)pyridine-3-carboxylic acid] | > 6.30
N#C/C(=C\C1CC1)C(=O)N1CC(n2cc(C(N)=O)c(-c3ccc(Oc4ccccc4)cc3)n2)C1 [Example 53, (E)-1-(1-(2-cyano-3-cyclopropylacryloyl)azetidin-3-yl)-3-(4-phenoxyphenyl)-1H-pyrazole-4-carboxamide] | ≤ 6.00
C=CC(=O)N1CCN(c2ccc(C(N)=O)c(-c3ccc(Oc4ccccc4)nc3)n2)CC1 [Example 31, 6-(4-acryloylpiperazin-1-yl)-6′-phenoxy-2,3′-bipyridine-3-carboxamide] | 6.00 to 6.30
C=CC(=O)N1CCC(c2ccc(C#N)c(-c3ccc(Oc4ccccc4)cc3)n2)CC1 [Example 24, 6-(1-acryloylpiperidin-4-yl)-2-(4-phenoxyphenyl)pyridine-3-carbonitrile] | 6.00 to 6.30
C=CC(=O)N1CCCC(n2cc(C(N)=O)c(-c3ccc(Oc4ccccc4)cc3)n2)C1 (stereo not shown) [Example 11, 1-(1-acryloylpiperidin-3-yl)-3-(4-phenoxyphenyl)-1H-pyrazole-4-carboxamide] | > 6.30
C=CC(=O)Nc1ccc(-c2ccc(C(N)=O)c(-c3ccc(Oc4ccccc4)cc3)n2)cc1 [Example 7, 6-(4-acrylamidophenyl)-2-(4-phenoxyphenyl)nicotinamide] | > 6.30
NC(=O)c1ccc(N2CCNCC2)nc1-c1ccc(Oc2ccccc2)cc1 [Example 4, 2-(4-phenoxyphenyl)-6-(piperazin-1-yl)nicotinamide] | ≤ 6.00
NC(=O)c1ccc(C2CCNCC2)nc1-c1ccc(Oc2ccccc2)cc1 [Example 2, 2-(4-phenoxyphenyl)-6-(piperidin-4-yl)nicotinamide] | ≤ 6.00
C=CC(=O)N1CCC(c2nc(-c3ccc(Oc4ccccc4)cc3)c(C(N)=O)o2)CC1 [Example 46, 2-(1-acryloylpiperidin-4-yl)-4-(4-phenoxyphenyl)oxazole-5-carboxamide] | > 6.30
C=CC(=O)N1CCC(c2nc(-c3ccc(Oc4ccccc4)cc3)c(C(N)=O)o2)C1 (stereo not shown) [Example 43, 2-(1-acryloylpyrrolidin-3-yl)-4-(4-phenoxyphenyl)oxazole-5-carboxamide] | > 6.30
N#CCC(=O)N1CC(n2cc(C(N)=O)c(-c3ccc(Oc4ccccc4)cc3)n2)C1 [Example 50, 1-(1-(2-cyanoacetyl)azetidin-3-yl)-3-(4-phenoxyphenyl)-1H-pyrazole-4-carboxamide] | ≤ 6.00

Structure (SMILES) | pIC50
C=CC(=O)N1CCN(c2ccc(C(N)=O)c(-c3ccc(OC4CCC(F)(F)CC4)cc3)n2)CC1 [Example 60, 6-(4-acryloylpiperazin-1-yl)-2-(4-((4,4-difluorocyclohexyl)oxy)phenyl)nicotinamide] | > 6.30
C=CC(=O)N1CCC(c2nc(-c3ccc(Oc4ccccc4)cc3)c(C(N)=O)s2)CC1 [Example 52, 2-(1-acryloylpiperidin-4-yl)-4-(4-phenoxyphenyl)thiazole-5-carboxamide] | > 6.30
CN(C)C/C=C/C(=O)N1CCC(n2cc(C(N)=O)c(-c3ccc(Oc4ccccc4)cc3)n2)C1 (stereo not shown) [Example 34, 1-(1-(4-(dimethylamino)but-2-enoyl)pyrrolidin-3-yl)-3-(4-phenoxyphenyl)-1H-pyrazole-4-carboxamide] | > 6.30
C=CC(=O)N1CCN(c2ccc(C(N)=O)c(-c3ccc(Oc4ccccc4)cc3F)n2)CC1 [Example 39, 6-(4-acryloylpiperazin-1-yl)-2-(2-fluoro-4-phenoxyphenyl)nicotinamide] | > 6.30
C=CS(=O)(=O)N1CCC(c2ccc(C(N)=O)c(-c3ccc(Oc4ccccc4)cc3)n2)CC1 [Example 63, 2-(4-phenoxyphenyl)-6-(1-(vinylsulfonyl)piperidin-4-yl)nicotinamide] | > 6.30
C=CC(=O)N1CC(n2cc(C(N)=O)c(-c3ccc(Oc4ccccc4)cc3)n2)C1 [Example 15, 1-(1-acryloylazetidin-3-yl)-3-(4-phenoxyphenyl)-1H-pyrazole-4-carboxamide] | > 6.30
C=CC(=O)N1CCCC(c2nc(C(N)=O)c(-c3ccc(Oc4ccccc4)cc3)o2)C1 (stereo not shown) [Example 54, 2-(1-acryloylpiperidin-3-yl)-5-(4-phenoxyphenyl)oxazole-4-carboxamide] | > 6.30
C=CC(=O)N1CCN(c2ccc(C(N)=O)c(-c3ccc(F)c(OC)c3)n2)CC1 [Example 30, 6-(4-acryloylpiperazin-1-yl)-2-(4-fluoro-3-methoxyphenyl)nicotinamide] | ≤ 6.00
C=CC(=O)N1CCN(c2ccc(C(N)=O)c(-c3ccc(Cl)cc3)n2)CC1 [Example 33, 6-(4-acryloylpiperazin-1-yl)-2-(4-chlorophenyl)nicotinamide] | ≤ 6.00
C=CC(=O)N1CCN(c2nc(-c3ccc(Oc4ccccc4)cc3)c(C(N)=O)s2)CC1 [Example 51, 2-(4-acryloylpiperazin-1-yl)-4-(4-phenoxyphenyl)thiazole-5-carboxamide] | > 6.30
C=CC(=O)N1CCCC(c2ccc(C(N)=O)c(-c3ccc(Oc4ccccc4)cc3)n2)C1 (stereo not shown) [Example 8, 6-(1-acryloylpiperidin-3-yl)-2-(4-phenoxyphenyl)nicotnamide] | > 6.30
C=CC(=O)N1CCC(n2cc(C(N)=O)c(-c3ccc(Oc4ccccc4)cc3)n2)C1 (stereo not shown) [Example 13, 1-(1-acryloylpyrrolidin-3-yl)-3-(4-phenoxyphenyl)-1H-pyrazole-4-carboxamide] | > 6.30
C=CC(=O)NC1CCN(c2ccc(C(N)=O)c(-c3ccc(Oc4ccccc4)cc3)n2)CC1 [Example 9, 6-(4-acrylamidopiperidin-1-yl)-2-(4-phenoxyphenyl)nicotinamide] | 6.00 to 6.30
C=CC(=O)N1CCCC(c2nc(C(N)=O)c(-c3ccc(Oc4ccccc4)cc3)s2)C1 (stereo not shown) [Example 45, 2-(1-acryloylpiperidin-3-yl)-5-(4-phenoxyphenyl)thiazole-4-carboxamide] | > 6.30
C=CC(=O)N1CCN(c2ccc(C(N)=O)c(-c3ccc(Oc4cccc(F)c4)cc3)n2)CC1 [Example 35, 6-(4-acryloylpiperazin-1-yl)-2-(4-(3-fluorophenoxy)phenyl)nicotinamide] | > 6.30
C=CC(=O)N1CCC(c2nc(C(N)=O)c(-c3ccc(Oc4ccccc4)cc3)s2)CC1 [Example 49, 2-(1-acryloylpiperidin-4-yl)-5-(4-phenoxyphenyl)thiazole-4-carboxamide] | > 6.30
C=CC(=O)N1CCCC(c2nc(-c3ccc(Oc4ccccc4)cc3)c(C(N)=O)o2)C1 (stereo not shown) [Example 42, 2-(1-acryloylpiperidin-3-yl)-4-(4-phenoxyphenyl)oxazole-5-carboxamide] | > 6.30
C=CC(=O)N1CCC(c2ccc(C(N)=O)c(-c3ccc(Oc4ccccc4)cc3)c2)CC1 [Example 55, 5-(1-acryloylpiperidin-4-yl)-4′-phenoxybiphenyl-2-carboxamide] | > 6.30
